{"source": "patent US10273517B2", "about": "(The Board of Regents of the University of Oklahoma, priority 2011, dated 2019)", "key": {"[1]": {"test_system": "recombinant Comamonas testosteronan synthase (CtTS)", "assay": "Radiolabeled sugar incorporation assay, donor sugar specificity of CtTS", "assay_type": "biochemical, Comamonas testosteroni KF-1", "conditions": "unlabeled UDP-sugar 1 mM, clarified lysate, 30 minutes at 22° C.; for incorporation of [3H]GlcNAc with the unlabeled UDP-sugar as second precursor: UDP-[3H]GlcNAc tracer; for activity (incorporation of [3H]GlcUA) with the unlabeled UDP-sugar as second precursor: UDP-[3H]GlcUA tracer", "description": "FIG. 3 graphically depicts the donor specificity of CtTS.\nIn order to determine the preferred hexosamine sugar donor utilized for putative GAG-like heteropolysaccharide biosynthesis, activity assays were performed with clarified lysates from recombinant bacteria expressing CtTS using two different UDP-sugars simultaneously in polymerization reactions in vitro. […] By further studying acceptor specificity and using GAG degrading enzymes that are specific for these GAGs, the nature of the polysaccharide formed by CtTS in vitro was characterized.\n(§1) Radiolabeled sugar incorporation assays (25 μl, 30 minutes at 22° C.) were performed using clarified lysates (60 μg total protein) in the presence of 0.05 mM UDP-GlcUA or UDP-GlcNAc as carrier with UDP-[^3H]GlcUA or UDP-[^3H]GlcNAc (0.1 μCi/assay) (NEN Perkin Elmer, Waltham, Mass.) with various unlabeled UDP-sugars (1 mM) or no second sugar as a negative control. The reaction buffer was 50 mM Tris, pH 7.2, 5 mM MgCl2; these conditions were obtained after limited optimization trials. Certain reactions used acceptors (1 μg) to bypass de novo initiation, including HA, heparosan, or Ct polysaccharide (sonicated 10 minutes on ice to increase the number of termini).\n(§2) Reactions were incubated at the indicated temperatures for the times noted, and then stopped with 2% final SDS and separated by descending paper chromatography (65:35 ethanol/1 M ammonium acetate buffer, Whatman 3MM paper). This method enabled the separation of GAG polysaccharides with greater than ^˜14 sugar units, which remain at the origin, from smaller oligomers and unincorporated nucleotide sugars that migrate down the strip. The origin of the strip was cut out and subjected to liquid scintillation counting (BIOSAFE™, RPI Corp, Mt. Prospect, Ill.)."}, "[2]": {"molecular_target": "heparin lyase I (Pedobacter heparinus, UniProt Q05819)", "sequence (Q05819 22-384)": "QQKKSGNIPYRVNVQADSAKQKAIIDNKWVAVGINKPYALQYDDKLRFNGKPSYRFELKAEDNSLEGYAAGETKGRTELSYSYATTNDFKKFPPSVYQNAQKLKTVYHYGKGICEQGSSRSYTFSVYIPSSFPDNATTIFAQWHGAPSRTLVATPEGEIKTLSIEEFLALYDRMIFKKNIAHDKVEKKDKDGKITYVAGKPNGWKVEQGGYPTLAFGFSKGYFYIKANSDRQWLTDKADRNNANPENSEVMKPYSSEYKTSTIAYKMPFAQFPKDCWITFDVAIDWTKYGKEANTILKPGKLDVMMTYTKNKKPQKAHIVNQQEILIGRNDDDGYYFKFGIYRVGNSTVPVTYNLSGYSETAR", "assay": "GAG degrading enzyme challenge: heparin lyase I", "assay_type": "in vitro ADME", "from_the_text": "(§3) Because of this finding, it is believed that while CtTS is able to utilize heparosan as an acceptor molecule due to a hypothetical shared structural feature, this GAG is not the native substrate."}, "[3]": {"test_system": "Proteus vulgaris chondroitinase ABC", "assay": "GAG degrading enzyme challenge: chondroitinase ABC", "assay_type": "in vitro ADME", "from_the_text": "as §3"}, "[4]": {"test_system": "Streptomyces hyalurolyticus HA lyase", "assay": "GAG degrading enzyme challenge: HA lyase", "assay_type": "in vitro ADME", "from_the_text": "as §3"}, "[5]": {"test_system": "recombinant Comamonas testosteronan synthase (CtTS)", "assay": "Radiolabeled sugar polymerization assay, acceptor specificity of CtTS", "assay_type": "biochemical, Comamonas testosteroni KF-1", "conditions": "radiolabeled UDP-sugars; acceptor 1 μg", "description": "FIG. 4 graphically depicts the acceptor specificity of CtTS. Extension of exogenous polysaccharide by recombinant Comamonas testosteronan synthase was measured. Activity assays were performed with radiolabeled UDP-sugars in the presence of hyaluronan, unsulfated chondroitin, heparosan or sonicated Comamonas polysaccharide.\nAcceptor Specificity of CtTS: To identify the acceptor preference of CtTS, radiolabeled sugar polymerization assays were performed in the presence of various GAG acceptors. In many, but not all, GAG synthases, exogenous cognate polysaccharide will increase the signal in sugar incorporation assays by bypassing the slower de novo initiation phase (DeAngelis et al., 1999 and 2004); the elongation phase is much more rapid; thus, higher activity is observed. Typically, non-cognate GAG polymers with different glycosidic linkage patterns are very poor or non-functional acceptors for the known GAG synthases in vitro. Hyaluronan, unsulfated chondroitin and heparosan as well as polysaccharide extract from C. testosteroni were tested. Hyaluronan and heparosan tetrasaccharides were also tested for their abilities to act as acceptors. […] To confirm that CtTS is able to directly extend a heparosan acceptor so as to rule out an artifactual stabilizing or conformational effect in the radioassays, an ^125I-labeled tetrasaccharide heparosan acceptor was also tested in vitro in the presence of only UDP-GlcNAc for single sugar addition, or UDP-GlcNAc and UDP-GlcUA for polymerization.\nas §1, with “Certain reactions used acceptors (1 μg) to bypass de novo initiation, including HA, heparosan, or Ct polysaccharide (sonicated 10 minutes on ice to increase the number of termini).” left out"}, "[6]": {"test_system": "recombinant Comamonas testosteronan synthase (CtTS)", "assay": "Radiolabeled sugar incorporation assay, divalent cation specificity of CtTS", "assay_type": "biochemical, Comamonas testosteroni KF-1", "conditions": "5 mM Mg2+ or 5 mM Mn2+ or 2 mM EDTA; 30 minutes at 22° C.", "description": "Radiolabeled sugar incorporation assays were performed (30 minutes at 22° C., as described in methods) in the presence of 5 mM Mg^2+ or 5 mM Mn^2+ or 2 mM EDTA.\nas §1, §2"}, "[7]": {"test_system": "recombinant Comononas testosteroni synthase (CtTS)", "assay": "Polymer grafting of testosteronan onto acceptors using CtTS (agarose gel, stoichiometric size control)", "assay_type": "biochemical, Comamonas testosteroni", "conditions": "acceptor 15 or 30 μM, monosaccharides/glycosides first extended step-wise with two UDP-sugars, Stains-all", "description": "The recombinant Comononas testosteroni synthase was incubated with both UDP-sugars and various acceptors (note: monosaccharides or glycosides first subjected to two extension steps via CtTS enzyme before adding both UDP sugars) OR ‘no acceptor’ in reaction buffer. The reactions were then subjected to agarose gel analysis with Stains-all dye detection. From left to right, the lanes are as follows: (1) HA LoLadder standard; (2) ‘no acceptor’ (de novo synthesis); (3) p-Nitrophenyl-β-D-glucuronide (15 μM); (4) p-Nitrophenyl-β-D-glucuronide (30 μM); (5) GlcUA (15 μM); (6) GlcUA (30 μM); (7) GlcNAc (15 μM); (8) GlcNAc (30 μM); (9) AFA=GlcUA-fluorescein-GlcUA (15 μM); (10) AFA (30 μM); (11) Hep4=base de-acetylated, nitrous acid, & reduced heparosan tetrasaccharide (15 μM); and (12) Hep4 (30 μM). Size control (i.e., differences in molecular weight between 15 and 30 μM) is noted with certain acceptors.\nThe recombinant Comononas testosteroni synthase was incubated with both UDP-sugars and various acceptors OR ‘no acceptor’ in reaction buffer. From left to right in FIG. 21, the lanes are listed below in Table 3.\nFor all acceptors except Hep4 and AFA, the final acceptor was produced in situ before elongation by extending step-wise with the next two appropriate UDP-sugars. For example, GlcUA was extended first with UDP-GlcNAc, then UDP-GlcUA (making a trisaccharide) before the complete polymerization reaction components (i.e., a mixture of many equivalents of UDP-GlcUA and UDP-GlcNAc together to allow the production of long polymer chains) were added. Two different concentrations of the acceptor were added (either 15 or 30 μM as noted) to test the effect of stoichiometric size control."}}, "note": "Entries after “also recorded” stand apart in the source; their conditions may differ."}
{"compound": "O=C(O)[C@@H]1O[C@@H](OP(=O)(O)OP(=O)(O)OC[C@H]2O[C@@H](n3ccc(=O)[nH]c3=O)[C@H](O)[C@@H]2O)[C@H](O)[C@@H](O)[C@@H]1O", "note": "[UDP-IdoUA]", "values": [{"measurement": "incorporation of [3H]GlcNAc with the unlabeled UDP-sugar as second precursor", "setting": "[1]", "value": "only the reactions containing UDP-GlcUA showed significant incorporation"}]}
{"compound": "CC(=O)N[C@H]1[C@@H](OP(=O)(O)OP(=O)(O)OC[C@H]2O[C@@H](n3ccc(=O)[nH]c3=O)[C@H](O)[C@@H]2O)O[C@H](CO)[C@H](O)[C@@H]1O", "note": "[UDP-GalNAc]", "values": [{"measurement": "activity (incorporation of [3H]GlcUA) with the unlabeled UDP-sugar as second precursor", "setting": "[1]", "value": "not"}]}
{"compound": "[-4-D-GlcUA-α1,4-D-GlcNAc-α1-]n [synthetic polysaccharide]", "values": [{"measurement": "sensitivity to degradation by heparin lyase I", "setting": "[2]", "value": "insensitive to degradation"}, {"measurement": "sensitivity to degradation by Proteus vulgaris chondroitinase ABC", "setting": "[3]", "value": "insensitive to degradation"}, {"measurement": "sensitivity to degradation by Streptomyces hyalurolyticus HA lyase", "setting": "[4]", "value": "insensitive to degradation"}]}
{"compound": "[-4-D-GlcUA-β1,4-D-GlcNAc-α1-]n [heparosan]", "values": [{"measurement": "use of exogenous GAG polysaccharide as acceptor by CtTS", "setting": "[5]", "value": "able to use; also recorded: capable of utilizing"}]}
{"compound": "O=C(O)[C@H]1O[C@H](OP(=O)(O)OP(=O)(O)OC[C@H]2O[C@@H](n3ccc(=O)[nH]c3=O)[C@H](O)[C@@H]2O)[C@H](O)[C@@H](O)[C@H]1O", "note": "[UDP-GalUA]", "values": [{"measurement": "incorporation of [3H]GlcNAc with the unlabeled UDP-sugar as second precursor", "setting": "[1]", "value": "only the reactions containing UDP-GlcUA showed significant incorporation"}]}
{"compound": "[-4-D-GlcUA-β1,3-D-GlcNAc-β1-]n [hyaluronan]", "values": [{"measurement": "use of exogenous GAG polysaccharide as acceptor by CtTS", "setting": "[5]", "value": "not"}]}
{"compound": "CC(=O)N[C@H]1[C@@H](OP(=O)(O)OP(=O)(O)OC[C@H]2O[C@@H](n3ccc(=O)[nH]c3=O)[C@H](O)[C@@H]2O)O[C@H](CO)[C@@H](O)[C@@H]1O", "note": "[UDP-GlcNAc]", "values": [{"measurement": "activity (incorporation of [3H]GlcUA) with the unlabeled UDP-sugar as second precursor", "setting": "[1]", "value": "Significant activity"}]}
{"compound": "O=C(O)CN(CCN(CC(=O)O)CC(=O)O)CC(=O)O", "note": "[EDTA]", "values": [{"measurement": "GT activity of CtTS in the presence of divalent cation or chelator", "setting": "[6]", "value": "eradicated the polymerization signal"}]}
{"compound": "O=C(O)[C@H]1O[C@@H](Oc2ccc([N+](=O)[O-])cc2)[C@H](O)[C@@H](O)[C@@H]1O", "note": "[p-Nitrophenyl-D-glucuronide, p-Nitrophenyl-β-D-glucuronide]", "values": [{"measurement": "stoichiometric size control of testosteronan product by acceptor", "setting": "[7]", "value": "allowed efficient size control"}]}
{"compound": "[Mn+2]", "note": "[Mn^2+]", "values": [{"measurement": "GT activity of CtTS in the presence of divalent cation or chelator", "setting": "[6]", "value": "supported GT activity"}]}
{"compound": "chondroitin", "values": [{"measurement": "use of exogenous GAG polysaccharide as acceptor by CtTS", "setting": "[5]", "value": "not"}]}
{"compound": "CC(=O)N[C@H]1C(O)O[C@H](CO)[C@@H](O)[C@@H]1O", "note": "(stereo partly shown) [GlcNAc, N-acetylglucosamine]", "values": [{"measurement": "stoichiometric size control of testosteronan product by acceptor", "setting": "[7]", "value": "did not"}]}
{"compound": "[Mg+2]", "note": "[Mg^2+]", "values": [{"measurement": "GT activity of CtTS in the presence of divalent cation or chelator", "setting": "[6]", "value": "roughly twice as for Mn^2+"}]}
{"compound": "[-4-D-GlcUA-α1,4-D-GlcNAc-α1-]n [testosteronan]", "values": [{"measurement": "sensitivity to degradation by heparin lyase I", "setting": "[2]", "value": "did not digest"}]}
{"compound": "GlcUA-fluorescein-GlcUA [AFA]", "values": [{"measurement": "stoichiometric size control of testosteronan product by acceptor", "setting": "[7]", "value": "efficient size control"}]}
{"compound": "O=C(O)[C@H]1O[C@H](OP(=O)(O)OP(=O)(O)OC[C@H]2O[C@@H](n3ccc(=O)[nH]c3=O)[C@H](O)[C@@H]2O)[C@H](O)[C@@H](O)[C@@H]1O", "note": "[UDP-GlcUA]", "values": [{"measurement": "incorporation of [3H]GlcNAc with the unlabeled UDP-sugar as second precursor", "setting": "[1]", "value": "significant incorporation"}]}
{"compound": "O=C[C@H](O)[C@@H](O)[C@H](O)[C@H](O)C(=O)O", "note": "[GlcUA, glucuronic acid]", "values": [{"measurement": "stoichiometric size control of testosteronan product by acceptor", "setting": "[7]", "value": "allowed efficient size control"}]}
